Key:
DsaD/E lysates = assay: Analytical-scale H/D exchange with pre-dialyzed DsaD and DsaE lysates; type: biochemical, Streptomyces scopuliridis; settings: lysates pre-dialyzed into D2O—Na3PO4 buffer pD 8.4, 99.9% D
Protocol: FIG. 6. Deuteration of L-Leu under conditions with minimal H2O contamination (99.9% D) using DsaD and DsaE lysates that were pre-dialyzed in 50 mM D2O—Na3PO4 (pD 8.4). Reactions performed using the described procedure for analytical-scale H/D exchange. Results are reported as the average of 3 trials.
(§1) General procedure analytical scale deuteration reactions: α/β deuteration reactions were performed as follows. A 1 mL Eppendorf tube was charged with amino acid (10-20 mM final concentration), Na3PO4 buffer pD 8.4 (50 mM final concentration), PLP (100 μM final concentration), purified enzymes or appropriate lysate and D2O and to the appropriate final volume (typically 50 μL). Reactions were carried out at 37° C. for 8 h and quenched by the addition of 3 volumes of acetonitrile. Precipitated biomolecules were pelleted by centrifugation (16,000×g, 10 min) and samples were processed as described below.
Exchange of DsaD and DsaE into D2O—Na3PO4 buffer system: When necessary, clarified lysates and purified proteins were exchanged into a D2O-based buffer system containing 50 mM Na3PO4 (−) using a Slide-A-Lyzer MINI dialysis device (ThermoFisher) with a 3 KDa cutoff. A maximum of 500 μL of lysate or protein was added to the device and exchanged 3 times into the D2O buffer at 4° C. before setting up reactions.

DsaD-MfnH protein pair = assay: Analytical-scale H/D exchange with purified DsaD and MfnH; type: biochemical, Streptomyces scopuliridis; Streptomyces drozdowiczii; settings: 5 μM DsaD, 50 μM MfnH (1:10 DsaD:MfnH)
Protocol: FIG. 4. Deuteration of L-Leu using purified DsaD (5 μM) and MfnH (50 μM) using the described procedure for analytical-scale H/D exchange. Results are reported as the average of 2 trials.
as §1
In the original report by Li et al. describing DsaE, a homologous enzyme with 42% sequence identity, MfnH, was disclosed.^29 This homolog could operate with DsaD to catalyze Cβ-epimerization of Ile. Here, we test the ability of MfnH to productively catalyze H/D exchange reactions. We performed reactions with purified MfnH, DsaD (1:10 DsaD:MfnH), and L-Leu under the conditions described for DsaD/E-catalyzed reactions (FIG. 4). […] We also attempted isolation of MfnO, the native BCAT partner of MfnH, but produced only apo-enzyme.

[1] = target: T1, DsaE with native E. coli BCATs (Escherichia coli, UniProt P0AB80); assay: Analytical-scale H/D exchange with DsaE lysate only; type: biochemical; settings: 5% v/v DsaE lysate, no DsaD
T1 construct: DsaE can utilize native BCATs present at biological concentrations (without overexpression) to perform H/D exchange; made in house; host or cells: Clarified lysate of E. coli BL21(DE3) overexpressing DsaE; the BCAT is endogenous to the host
T1 sequence (P0AB80 2-309 E236D): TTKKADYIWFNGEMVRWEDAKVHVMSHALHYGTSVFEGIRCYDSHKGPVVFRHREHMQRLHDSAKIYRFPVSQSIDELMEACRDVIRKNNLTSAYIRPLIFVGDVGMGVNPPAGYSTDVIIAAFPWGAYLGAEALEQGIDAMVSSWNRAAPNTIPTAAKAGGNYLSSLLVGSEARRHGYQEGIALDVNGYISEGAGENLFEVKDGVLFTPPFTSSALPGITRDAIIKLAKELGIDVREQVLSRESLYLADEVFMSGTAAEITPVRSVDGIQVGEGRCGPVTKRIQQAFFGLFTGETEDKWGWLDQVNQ
T1 sequence (as listed by the source, change not shown): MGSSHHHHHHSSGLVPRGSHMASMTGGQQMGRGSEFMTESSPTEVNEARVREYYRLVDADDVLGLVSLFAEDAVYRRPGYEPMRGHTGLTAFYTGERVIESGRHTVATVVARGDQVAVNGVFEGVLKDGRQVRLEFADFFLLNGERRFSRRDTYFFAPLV
Protocol: (§2) FIG. 7. Deuteration of L-Leu using only DsaE lysate (5% v/v) with minimal H2O contamination (99.9% D). Reactions were performed using the described procedure for analytical-scale H/D exchange. Results are reported as the average of 3 trials.
(§3) In another version, DsaE operates with a BCAT enzyme other than DsaD to effect a Cα/Cβ-exchange. For example, DsaE clarified cell lysates (CCLs) can achieve Cα and Cβ-deuteration without the addition of the aminotransferase DsaD. Instead of relying on DsaD as a partner for catalysis, DsaE promiscuously interacts with native branched-chain amino acid aminotransferases (BCATs) expressed by E. coli (SEQ ID NO: 2) for primary metabolism. No overexpression of BCAT is necessary to induce this activity. We simply overexpressed partner protein DsaE and generated a clarified cell lysate from the resulting E. coli. […] The reaction is as follows:
as §1, with “Precipitated biomolecules were pelleted by centrifugation (16,000×g, 10 min) and samples were processed as described below.” left out

[2] = target: T2, DsaE with native E. coli BCATs (Escherichia coli, UniProt P0AB80, E236D); assay: as above; type: biochemical; settings: 5% v/v DsaE lysate, no DsaD
T2 construct: DsaE can utilize native BCATs present at biological concentrations (without overexpression) to perform H/D exchange; made in house; host or cells: Clarified lysate of E. coli BL21(DE3) overexpressing DsaE; the BCAT is endogenous to the host
T2 sequence (P0AB80 2-309 E236D): as the sequence (P0AB80 2-309 E236D) above
T2 sequence (as listed by the source, stated change not applied): as the sequence (as listed by the source, change not shown) above
Protocol: as §2, §3
as §1, with “Precipitated biomolecules were pelleted by centrifugation (16,000×g, 10 min) and samples were processed as described below.” left out

CC(C)C[C@H](N)C(=O)O [Leu, leucine]
D-incorporation at Cα (DsaD/E lysates): > 99%
D-incorporation at Cβ (DsaD/E lysates): 98%
deuterium labeling at Cβ (DsaD-MfnH protein pair): 58%
exchange at Cα (DsaD-MfnH protein pair): 93%
deuterium incorporation at Cβ [1]: 70%
labeling at Cα [2]: > 95%
